The source of these data is ChEMBL document CHEMBL3745617 (J Med Chem, 2015).

The nature of this data set: Cytotoxicity against mouse BAF3 cells assessed as cell proliferation after 72 hrs by CelltiterGlo assay. The class given is cell-based. In general terms: Cellular ATP, detected with luciferase, serves as a proxy for viable cell number.

One may read the GI50 as the concentration that inhibits growth by half. Take `CN(C)CC(=O)N1CCC[C@@H](n2nc(-c3ccc(Oc4ccccc4)cc3)c3c(N)ncnc32)C1`: the concentration for 50% growth inhibition (GI50) at 72 h worked out at 4.9 µM.
